From patent US20090171621A1, “MEASURING THE DISTANCE BETWEEN DEVICES” (KONINKLIJKE PHILIPS ELECTRONICS, N.V., priority 2004, published 2009)

Tests used:
[1] = clinical trials / prescription drug development; cited from earlier work
ISA brown hens [2] = assay: Egg laying performance of hens fed supplemented diet (egg weight, egg production); format: in vivo; details: for Egg weight / Egg production: 6 weeks; for Egg production: percent hen day production
Experimental: (§1) Healthy ISA brown hens, 45-week old, were assigned randomly to each dietary group (control group, 8 birds; experimental group, 6 birds each). Each bird was placed in an individual cage in an environmentally controlled room (25° C., 50% relative humidity, 16L:8D). The hens were allowed for 2 weeks in which to adapt to the feed with no additives and the housing. Control birds were fed a commercial diet based on corn and soybean meal (Table 1), while birds in experimental groups were fed diets supplemented with 0.003 or 0.03% of compactin (Sigma Aldrich Korea) for 6 weeks. Feed and water were provided ad libitum throughout the experiment. Feed consumption, egg production and egg weight were recorded daily. Egg production was expressed as percent hen day production; (100×number of eggs laid)/(number of hens×days).
The effects of 0.003% or 0.03% compactin on the laying performance of 45-week old ISA brown hens were investigated (Table 2). Egg weight was maintained at more than 60 grams after 6 weeks of oral administrations of compactin at both doses. […] Maintenance of laying performance with compactin feeding is of contrast to the previous art in which atorvastatin reduced egg production down to 70% after feeding for 5-week.
Egg production and yolk cholesterol analysis was performed with 0.003 and 0.03% pravastatin administered group with the same procedure as described in Example 1 above. Hen performance was investigated by measuring egg weight and egg production as in Table 4. Pravastatin group had maintained above 80% of egg production rate after 6-week administration, same as control.
Egg production and yolk cholesterol analysis was performed with the same procedure as described in Example 1 above except 0.5 and 1% of Streptomyces cell precipitates and bioconversion reaction broth were administered instead of compactin. Hen performance was investigated by measuring egg weight and egg production as in Table 6.

ISA brown hens [3] = assay: Egg cholesterol analysis (yolk weight, yolk cholesterol by gas chromatography) of hens fed supplemented diet; format: in vivo; details: for Cholesterol content / Cholesterol content change / Cholesterol concentration: 6 weeks; for Cholesterol content change: compared to control; for Cholesterol concentration: per gram of yolk; for Total yolk/egg cholesterol content, percentage change (reduction) compared to control: 0.03% in feed; for Egg york weight: 6 weeks (Table 5)
Experimental: as §1
For egg cholesterol analysis, eggs from each bird were collected and egg yolk was separated, weighed, and sampled for analysis. Lipids from eggs were extracted by the method of Folch et al. (1957). Briefly, one gram of sample was saponified with 3 mL of 33% KOH and incubated with 30 mL of 95% methanol in a 65° C. water bath for 90 min. After saponification, 10 mL hexane and 3 mL water were added, followed by vigorous shaking for 10 min. 5α-cholestan (Sigma C-8300) was used as an internal standard. Cholesterol content was determined by a gas chromatography (Shimadzu, Japan) using column VB-1 (30 m×0.25 mm×0.25 μm, VICI Inc.) with a split ratio of 100:1 and nitrogen as carrier gas for a column flow rate of 0.54 mL/min. Injector, column, and detector temperatures were 275° C., 290° C., and 340° C., respectively.
Egg production and yolk cholesterol analysis was performed with 0.003 and 0.03% pravastatin administered group with the same procedure as described in Example 1 above. Hen performance was investigated by measuring egg weight and egg production as in Table 4. […]

egg-laying chickens [4] = details: previous art, cited from earlier work
egg-laying chickens [5] = details: previous art, cited from earlier work; remark: listed apart in the source

| Compound | Toxicity [1] | Cholesterol content (ISA brown hens [3]; 0.003 weight % added to feed) [mg/egg] | Cholesterol content change (ISA brown hens [3]; 0.003 weight % added to feed) [%] | Cholesterol concentration (ISA brown hens [3]; 0.003 weight % added to feed) [mg/g] | Total yolk/egg cholesterol content, percentage change (reduction) compared to control (ISA brown hens [3]; given without sign) [%] | Cholesterol content (ISA brown hens [3]; 0.03 weight % added to feed) [mg/egg] | Cholesterol content change (ISA brown hens [3]; 0.03 weight % added to feed) [%] | Cholesterol concentration (ISA brown hens [3]; 0.03 weight % added to feed) [mg/g] | other results |
| --- | --- | --- | --- | --- | --- | --- | --- | --- | --- |
| CC[C@H](C)C(=O)O[C@H]1CCC=C2C=C[C@H](C)[C@H](CC[C@@H]3C[C@@H](O)CC(=O)O3)[C@H]21 [Compactin, compactin] | serious toxicity | 185 | −16 | 11.2 ± 0.3 | 29 | 156 | −29 | 10.5 ± 0.2 | Egg production compared to the control group (ISA brown hens [2]; in vivo): did not cause any difference in egg production; Total yolk cholesterol content, percentage change (reduction) compared to control (ISA brown hens [3]; 0.003% in feed, given without sign): 16% |
| CC(C)c1c(C(=O)Nc2ccccc2)c(-c2ccccc2)c(-c2ccc(F)cc2)n1CC[C@@H](O)C[C@@H](O)CC(=O)O [atorvastatin] |  |  |  |  |  |  |  |  | Cholesterol-lowering effect in eggs (egg-laying chickens [4]; 0.03-0.06% fed for 5 weeks): satisfactory; Egg production reduced down to (egg-laying chickens [5]; after feeding for 5-week): 70%; Decrease of egg production rate compared to control (egg-laying chickens [5]): more than 15%; Effect of oral administration on egg production (egg-laying chickens [5]): decrease egg production |
| CC[C@H](C)C(=O)O[C@H]1C[C@@H](C)C=C2C=C[C@H](C)[C@H](CC[C@@H]3C[C@@H](O)CC(=O)O3)[C@H]21 [lovastatin] |  |  |  |  |  |  |  |  | Reduction of egg cholesterol level (egg-laying chickens [4]; at its high dose): 3-6% |
| pravastatin | not toxic | 207 | −6 | 12.5 ± 0.5 | 24 | 167 | −24 | 10.4 ± 0.5 | Egg weight (ISA brown hens [2]; 0.003 weight % added to feed): 62.5 ± 0.3 g; Egg production (ISA brown hens [2]; 0.003 weight % added to feed): 84%; Egg weight (ISA brown hens [2]; 0.03 weight % added to feed): 58.8 ± 0.7 g; Egg production (ISA brown hens [2]; 0.03 weight % added to feed): 82%; Egg production rate maintained (ISA brown hens [2]; after 6-week administration, 0.003 and 0.03%): above 80%; Egg york weight (ISA brown hens [3]; 0.003 weight % added to feed): 16.5 ± 0.4 g; Egg york weight (ISA brown hens [3]; 0.03 weight % added to feed): 16.1 ± 0.4 g |
